Test results reported in patent US8575089B2, “Composition for preventing or treating inflammation” (University-Industry Cooperation Group of Kyung Hee, priority 2009, dated 2013).
Where no end group is shown, it is not given here.

What was measured:
pancreas beta cells = assay: Streptozotocin-induced Type I diabetes: insulin IHC staining of pancreas; type: in vivo, ICR mouse
[1] = system: regulatory T cells (CD4+, FoxP3+) and anti-inflammatory macrophage M2 (CD11b+, CD206+); assay: Radiation-irradiating model: FACS of regulatory T cells and macrophage M2 in mesentric lymph nodes and small intestine; type: in vivo, C57b1/6 mice; conditions: mice, 8 Gy, SP i.v., 4.5 hours after irradiation
Procedure: 5 nmole/kg of SP dissolved in a physiological saline was injected to a tail vein of C57b1/6 mice (8 weeks, sex; male, n=4, Average weight; 20 g) one day before irradiation and immediately after irradiation. The irradiation was performed at 8 Gy radiation in a Gamma lay radiation irradiator (^137Cs, Atomic Energy of Canada, Mississauga, Canada). The mice were sacrificed at 4.5 hours and one day after irradiation, and then the blood was collected. The part of the blood was used for analyzing CBC (Complete Blood Count) and the remaining blood was used to isolate serum and then analyze cytokines
The mice were sacrificed at 4.5 hours after irradiation using the same method as Example 3; mesentric lymph nodes were taken for isolating mononuclear cells; then isolated mononuclear cells were fixed at 3.7% formalin for 1 hour; and then anti-inflammatory-related T cells and macrophages were analyzed through FACS (BD FACSCalibur™: 343098, BD Biosciences, Canada) analysis.
Specifically, the mice were sacrificed at 4.5 hours after 8 Gy radiation; the abdomens were cut to open; mesentric lymph nodes and small intestines were taken and then were cut fine; then chopped by using operating scissors; then were treated with collagenase type I (Worthington, USA) and DNase I (Sigma, USA) at 37° C. for 20 minutes; washed, respectively; mononuclear cells were isolated; and then fixed in 3.7% formalin for 1 hour. The mesentric lymph nodes mononuclear cells fixed in formalin were double-stained with CD4 (130-091-608, Miltenyi Biotec, Germany) and FoxP3 (130-093-013, Miltenyi Biotec, Germany) antibody, and then regulatory T cells were analyzed through FACS analysis. In addition, an anti-inflammatory macrophage M2 analysis was performed through FACS analysis after double staining with CD11b (130-081-201, Miltenyi Biotec, Germany) and CD206 (ab64693, abcam, UK) antibody. Since T cells or macrophages in the small intestine mononuclear cells fixed in a formalin accounted for less than 1% of the whole cells, FACS analysis was performed after isolating CD3 (130-092-962, Miltenyi Biotec, Germany)+ cell and CD11b+ cell with MACS isolating method as disclosed in the previous Example 1-(2), respectively. Regulatory T cells were analyzed by double-staining the cells isolated by CD3 with CD4 and FoxP3 antibody and anti-inflammatory macrophage M2 analysis was performed by double-staining the cells isolated by CD11b with CD11b and CD206 antibody.

[2] = system: mononuclear cells in blood; assay: Corneal epithelial burn model: number of mononuclear cells in blood; type: in vivo, New Zealand white rabbit; conditions: rabbit, alkali burn of cornea; 5 nmole/kg SP i.v. immediately and 24 hours after burning; vs continuously increased without SP; FIG. 4
Procedure: Ketalar (50 mg/ml, Yuhan Corporation) and Rompun (23.32 mg (Xylazine hydrochloride)/ml, Bayer Korea Corporation) were mixed in a rate of 2:1, and then total 900 μl (Ketalar 600 μl: Rompun 300 μl) was injected into muscles of rabbits (New Zealand white rabbit, Male, 2.5 kg, n=4). After the intramuscular injection, 300 μl (Ketalar 200 μl: Rompun 100 μl) of the same anesthetic drug was injected in the rabbit's ear vein.
A 6 mm paper disc fully wetted by 1N NaOH was contacted to a limbus part of rabbit's cornea for 10 seconds. After alkali burning, corneal epithelium was removed in a size of the paper disc. The rabbit's eyes were quickly washed with a physiological saline immediately after alkali burning. At the same time, 5 nmole/kg of SP dissolved in a physiological saline was intravenously injected, and then after 24 hours, was injected once more (immediately after burning and at 24 hours after burning). For the control, PBS with the same volume was injected (injection Volume: 1 ml).
Peripheral blood was collected from ear veins in 10 ml at one, three, five and seven days after alkali burning. […]
The blood obtained from the above step was diluted twice with PBS, and then carefully put on Ficoll in a tube. […] Then, after adding 30 ml of PBS and centrifuging (washing step), the number of cells was counted to confirm the number of cells per 1 ml and then the results were shown in FIG. 4.

Substance-P (RPKPQQFFGLM; not fully specified; ends and bridges not checked; UniProt P20366 58-68, looked up)
diabetes lesion (pancreas beta cells; STZ-induced diabetes, SP treated after inducing diabetes): becomes weak
progress of Type I diabetes (pancreas beta cells; STZ-induced diabetes, SP treated when diabetes was induced): inhibits
death of beta cells secreting insulin (pancreas beta cells; STZ-induced diabetes, mice sacrificed at 11 weeks, FIG. 12): inhibited
insulin secretion (Insulin IHC staining of pancreas) (pancreas beta cells; group with injecting SP, mice sacrificed at 11 weeks, vs significantly low with only STZ, FIG. 12): high
anti-inflammatory macrophage M2 (CD11b+, CD206+) ([1]; mesentric lymph nodes, FIG. 10): increased
regulatory T cells (CD4+, FoxP3+) ([1]; mesentric lymph nodes, FIG. 10): increased
anti-inflammatory macrophage M2 (CD11b+, CD206+) ([1]; small intestines, FIG. 11): increased
regulatory T cells (CD4+, FoxP3+) ([1]; small intestines, FIG. 11): increased
total number of mononuclear cells per 1 ml blood [2]: decreased at seven days
